Earlier results as cited in PMC12491383, “Organ and tumour dosimetry of ^177Lu-rhPSMA-10.1, a novel PSMA-targeted therapy: results from a Phase I trial” (European Journal of Nuclear Medicine and Molecular Imaging, 2025).

Experiments:
[1] = parameters: method as in PMID 34887335; details: reported data; cited from earlier work
[2] = parameters: method as in PMID 38050121; details: cited from earlier work

## O=C([O-])CN1CCN(CC(=O)[O-])CCN(CC(=O)NCC2CCC(C(=O)N[C@@H](Cc3ccc4ccccc4c3)C(=O)NCCCC[C@H](NC(=O)N[C@@H](CCC(=O)O)C(=O)O)C(=O)O)CC2)CCN(CC(=O)[O-])CC1.[177Lu+3] (stereo partly shown) [^177Lu-PSMA-617, lutetium Lu 177 vipivotide tetraxetan]
[1]
  Tumour effective half-life: 61 h
[2]; VISION dosimetry substudy
  Absorbed dose to the bone marrow: 0.035 Gy/GBq
[2]; VISION substudy
  Absorbed dose in the salivary glands: 0.63 Gy/GBq
[2]; dosimetry substudy of the Phase III VISION trial
  Absorbed dose in the kidneys: 0.43 Gy/GBq
